Test results from patent US20180346731A1, “Formation of Stable Pyranoanthocyanins, and Uses Thereof as Sources of Natural Color” (Ohio State Innovation Foundation, priority 2017, published 2018).
Where “and” joins values, the source holds several entries; their conditions need not be identical. Equal entries are not always repeated.

Experiments:
[1] = UV-Vis absorbance loss and first-order bleaching kinetics of pigment solutions with ascorbic acid (pH 3.0 citrate buffer, 25° C., dark); type: physicochemical; conditions: for K (reaction rate, first-order) / t1/2: 25° C. dark
Experimental: The semi-purified chokeberry extract, the isolated cyanidin-3-galactoside, and the purified 5-carboxypyranocyanidin-3-galactoside were diluted in pH 3.0 citrate buffer (0.1 M adjusted with HCl) until an absorbance of 1.0 at their respective λmax was reached. Levels of AA of 250, 500, and 1000 mg/L were added using a concentrated ascorbic acid stock solution, and a control consisting of each pigment with the absence of AA was maintained. The control consisted of the pigment in the buffer in the absence of AA. An additional test was performed with the same model juice using hydrogen peroxide, a known degradation product of AA. To determine if AA bleaching was due to formation of H2O2, direct addition of it was investigated. In place of added AA, a 62.2 μL of a 0.3% peroxide solution was added to match the molar equivalency of the 500 mg/L AA level, which was 2.84 mM. All samples were brought to the same final volume with additional citrate buffer. […] Samples were stored in the dark at 25° C. in an incubator. UV-Vis spectrophotometry, colorimetry, and HPLC analyses were conducted over a 5 day period following the addition of ascorbic acid or hydrogen peroxide. UV-Vis spectral data was collected every hour for the first 8 hours, and then at 12 hr, and daily from that point on for 5 days. […] HPLC analyses were conducted on days 0, 1, 3, and 5. All treatments were run in triplicate. A SpectraMax 190 Microplate Reader (Molecular Devices, Sunnyvale, Calif., U.S.) with a 96-well plate (poly-D-lysine coated polystyrene) were used for the evaluation of absorbance from 380-700 nm, 1 nm intervals. Aliquots (200 uL) of samples were loaded into individual wells, and a blank consisted of the same citrate buffer used. Because of the rapid nature of AA-induced color loss, degradation kinetics were evaluated in terms of change in maximum absorbance at the original λmax over time. Bleaching is a first-order reaction, typical of ACN degradation, and was modeled as such in determining the reaction rate and half-life. The decrease in maximum absorbance correlated with an increase in lightness (L*) as well as the decrease in chroma (c*). The reduction in maximum absorbance did closely follow first-order kinetics for chokeberry extract and cyanidin-3-galactoside but slightly deviated for 5-carboxypyranocyanidin-3-galactoside. […] The kinetics results for each pigment and AA level can be found in Table 3 below.

[2] = Colorimetry (CIEL*c*h*, ΔE) of pigment solutions with ascorbic acid; type: physicochemical
Experimental: (§1) The semi-purified chokeberry extract, the isolated cyanidin-3-galactoside, and the purified 5-carboxypyranocyanidin-3-galactoside were diluted in pH 3.0 citrate buffer (0.1 M adjusted with HCl) until an absorbance of 1.0 at their respective λmax was reached. Levels of AA of 250, 500, and 1000 mg/L were added using a concentrated ascorbic acid stock solution, and a control consisting of each pigment with the absence of AA was maintained. The control consisted of the pigment in the buffer in the absence of AA. An additional test was performed with the same model juice using hydrogen peroxide, a known degradation product of AA. To determine if AA bleaching was due to formation of H2O2, direct addition of it was investigated. In place of added AA, a 62.2 μL of a 0.3% peroxide solution was added to match the molar equivalency of the 500 mg/L AA level, which was 2.84 mM.
(§2) All samples were brought to the same final volume with additional citrate buffer. […] Samples were stored in the dark at 25° C. in an incubator. UV-Vis spectrophotometry, colorimetry, and HPLC analyses were conducted over a 5 day period following the addition of ascorbic acid or hydrogen peroxide. UV-Vis spectral data was collected every hour for the first 8 hours, and then at 12 hr, and daily from that point on for 5 days. […] HPLC analyses were conducted on days 0, 1, 3, and 5. All treatments were run in triplicate.
Using UV-Vis spectral data (5 nm steps, 380-700 nm) in combination with software written for color conversion, absorbance data was translated to CIE-L*c*h*. The calculations for CIE-L*c*h* implemented by the software used CIE relative spectral power distribution for a D65 standard illuminants and 10° observer angle function. Color data is reported as L* (lightness), c* (chroma), and h* (hue angle).
Total color changes (ΔE) were calculated as the color change from day 0 to 5 for each respective treatment, and presented in Table 4.
Numbers are means of 3 replications, followed by (standard deviations). ΔE: total color change from day 0 (control) to day 5.

[3] = HPLC monitoring of pigment peaks with ascorbic acid; type: physicochemical
Experimental: Prior to experimentation, pigments were evaluated for purity by using an analytical HPLC only different from the previously listed one by the use of different pumps (LC-20AD, Shimadzu, Md., US). Purified pigments were filtered using the Phenex RC 0.45 μm membranes. A binary system with 1 mL/min flow rate was used: solvent A: 4.5% formic acid in HPLC grade water and solvent B: HPLC grade acetonitrile. The gradient began with an isocratic flow of 6% solvent B for 17 minutes (elution of primary anthocyanins), increasing to 15% solvent B by 45 minutes (elution of primary pyranoanthocyanins), and to 40% solvent B by 50 minutes. A 10 μL injection volume was loaded onto a Phenomenex Kinetix 5 μm EVO C18 100 A. 150×4.6 mm column and Phenomenex Ultra UHPLC EVO C18 guard cartridge attached.
as §1, §2
Prepared solutions were monitored to determine the formation of potential degradation products or profile changes. Using the analytical HPLC system and conditions described, chromatograms were monitored with the max plot (260-700 nm), 490 nm (near λmax of 5-carboxypyranocyanidin-3-galactoside), and 520 nm (near ma of cyanidin-3-galactoside). A max plot of 470-520 nm was later added to standardize changes in the AUC for all three pigments and their degradation products.

[4] = Direct hydrogen peroxide addition to pigment solutions (HPLC, absorbance); type: physicochemical
Experimental: as §1
All samples were brought to the same final volume with additional citrate buffer. […] Samples were stored in the dark at 25° C. in an incubator. UV-Vis spectrophotometry, colorimetry, and HPLC analyses were conducted over a 5 day period following the addition of ascorbic acid or hydrogen peroxide. […]
Auto-oxidation of AA in solution can give rise to H2O2 formation, a powerful bleaching agent that can further lead to rapid ACN degradation. […] HPLC profiles as well as maximum absorbance and λmax of the solutions were evaluated.

[5] = reported in literature; cited from earlier work

In the case of `O=C(O)C1=Cc2c(O[C@@H]3O[C@H](CO)[C@H](O)[C@H](O)[C@H]3O)c(-c3ccc(O)c(O)c3)[o+]c3cc(O)cc(c23)O1` [5-carboxypyranocyanidin-3-galactoside], the “K (reaction rate, first-order)” value ([1]; 250 mg/L AA) is reported as 2.69E−03, the t1/2 ([1]; 250 mg/L AA) is reported as 258 h and the “reduction in maximum absorbance” value ([1]; 500 mg/L AA, 5 day period) is reported as 38%. For the same compound, the “λmax after hypsochromic change” value ([1]; 500 mg/L AA, after treatment) was 484 nm, the “λmax before hypsochromic change” value ([1]; 500 mg/L AA, start) was 491 nm and the “K (reaction rate, first-order)” value ([1]; 500 mg/L AA) was 4.61E−03. For the same compound, the t1/2 ([1]; 500 mg/L AA) was 150 h, the “K (reaction rate, first-order)” value ([1]; 1000 mg/L AA) was 1.08E−02 and the t1/2 ([1]; 1000 mg/L AA) was 64 h. The “K (reaction rate, first-order)” value ([1]; Control, no AA, absorbance at λvis-max) was 7.08E−04, the “time before a significant difference (p<0.05) in maximum absorbance from time 0” value ([1]; all levels of AA added) was 24 h and the “hypsochromic shift of λmax” value ([1]; over the 5 days of AA treatment, regardless of AA level) was ≤ 10 nm. For the same compound, the “Chroma Day 0” value ([2]; 250 mg/L AA) was 55.2 (0.4), the “Chroma Day 5” value ([2]; 250 mg/L AA) was 43.2 (0.2) and the “Hue Angle Day 0” value ([2]; 250 mg/L AA) was 50.7 (0.2) °. For the same compound, the “Hue Angle Day 5” value ([2]; 250 mg/L AA) was 46.9 (.3) °, the “Lightness Day 0” value ([2]; 250 mg/L AA) was 81.9 (0.1) and the “Lightness Day 5” value ([2]; 250 mg/L AA) was 82.8 (0.3). For the same compound, the “ΔE Over 5 days” value ([2]; 250 mg/L AA) was 4.5 (0.2), the “Chroma Day 0” value ([2]; 500 mg/L AA) was 54.7 (0.3) and the “Chroma Day 5” value ([2]; 500 mg/L AA) was 39.2 (0.3). For the same compound, the “Hue Angle Day 0” value ([2]; 500 mg/L AA) was 50.4 (0.1) °, the “Hue Angle Day 5” value ([2]; 500 mg/L AA) was 48.3 (0.4) ° and the “Lightness Day 0” value ([2]; 500 mg/L AA) was 82.1(0.3). For the same compound, the “Lightness Day 5” value ([2]; 500 mg/L AA) was 83.6 (0.4), the “ΔE Over 5 days” value ([2]; 500 mg/L AA) was 5.0 (0.2) and the “Chroma Day 5” value ([2]; 1000 mg/L AA) was 36.2 (0.3). The “Hue Angle Day 0” value ([2]; 1000 mg/L AA) was 51.0 ° and 51.0 (0.1) °, the “Hue Angle Day 5” value ([2]; 1000 mg/L AA) was 57.1 ° and 57.1 (0.7) ° and the “Lightness Day 5” value ([2]; 1000 mg/L AA) was 83.7 (0.2). For the same compound, the “ΔE Over 5 days” value ([2]; 1000 mg/L AA) was 5.2 (0.5), the “L* after 48 hours” value ([2]; 1000 mg/L AA, 48 hours) was 86.6 and the “ΔE Over 5 days” value ([2]; 1000 mg/L AA, listed as 5-Carboxypyranocyanidin-3-galactoside) was 5.2. The “Chroma Day 0” value ([2]; Control, no AA) was 54.3 (0.7), the “Chroma Day 5” value ([2]; Control, no AA) was 49.9 (1.3) and the “Hue Angle Day 0” value ([2]; Control, no AA) was 50.0 (0.2) °. For the same compound, the “Hue Angle Day 5” value ([2]; Control, no AA) was 47.5 (0.6) °, the “Lightness Day 5” value ([2]; Control, no AA) was 82.2 (0.6) and the “ΔE Over 5 days” value ([2]; Control, no AA) was 2.1 (0.4). The “Lightness Day 0” value ([2]; Control, no AA, mean (SD), n=3) was 82.2 (0.2), the “time until significant change in chroma as compared to the control” value ([2]; all levels of AA) was 48 h and the initial hue angle ([2]; day 0) was 50 °. For the same compound, the “target peaks left after 1 day” value ([3]; 1000 mg/L AA, HPLC) was 10%, the “reduction of pigment peak by day 1” value ([3]; 1 g/L AA, HPLC AUC) was 93% and the “reduction of pigment peak by day 5” value ([3]; 1 g/L AA, HPLC AUC) was 99%. The “resistance to bleaching with H2O2” value [4] was “more resistant to bleaching compared to anthocyanins”.
In the case of `OC[C@H]1O[C@@H](Oc2cc3c(O[C@@H]4O[C@H](CO)[C@@H](O)[C@H](O)[C@H]4O)cc(O)cc3[o+]c2-c2ccc(O)c(O)c2)[C@H](O)[C@@H](O)[C@@H]1O` [Cy-3-glu-5-glu], the pKh [5] is given as 2.23.
